PMC3920478, “Small molecule-mediated refolding and activation of myosin motor function” (eLife, 2014)
Entries after “also recorded” stand apart in the source; their conditions may differ.

Columns and labels:
[1] = target: T1, Dd myosin-2 ΔSH3 (lacks residues 33–79) (Dictyostelium discoideum, UniProt P08799, DEL34-80); assay: Steady-state basal and actin-activated Mg2+-ATPase (NADH-coupled assay); type: biochemical
T1 construct: Dd myosin-2 ΔSH3, a recombinant motor domain construct that lacks this subdomain; made in house
T1 sequence (P08799 other isoform, or with tags, fused parts or gaps DEL34-80): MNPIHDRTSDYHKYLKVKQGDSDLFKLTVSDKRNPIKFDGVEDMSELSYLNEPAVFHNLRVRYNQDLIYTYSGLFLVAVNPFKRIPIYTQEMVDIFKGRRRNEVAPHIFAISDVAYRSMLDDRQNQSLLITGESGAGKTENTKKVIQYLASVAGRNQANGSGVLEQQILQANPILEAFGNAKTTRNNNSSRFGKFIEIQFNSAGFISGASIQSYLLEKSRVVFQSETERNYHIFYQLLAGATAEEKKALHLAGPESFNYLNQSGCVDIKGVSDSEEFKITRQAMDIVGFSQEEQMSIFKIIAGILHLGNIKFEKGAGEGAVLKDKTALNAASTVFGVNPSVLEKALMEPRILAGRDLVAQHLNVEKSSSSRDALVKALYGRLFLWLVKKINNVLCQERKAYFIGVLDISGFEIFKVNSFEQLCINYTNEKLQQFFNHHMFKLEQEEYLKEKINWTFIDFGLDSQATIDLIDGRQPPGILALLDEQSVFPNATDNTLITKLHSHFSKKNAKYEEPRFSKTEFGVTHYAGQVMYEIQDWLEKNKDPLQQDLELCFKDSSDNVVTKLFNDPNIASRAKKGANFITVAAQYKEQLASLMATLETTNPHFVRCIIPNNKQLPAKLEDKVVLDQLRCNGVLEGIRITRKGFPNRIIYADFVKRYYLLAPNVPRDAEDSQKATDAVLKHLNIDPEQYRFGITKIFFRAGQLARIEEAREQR
Text: Initial blind docking to homology models of the β-cardiac myosin motor domain in the post-rigor state indicated preferred binding of the drug to a region near the small N-terminal, SH3-like βbarrel subdomain. Important contacts are predicted to involve the SH3-like subdomain (residues 34–72) and two α-helices (residues 20–28 and 98–111). […] The sets of binding poses differ mainly in the orientation of the dimethylated catechol group, occupying either of the two possible branches of the Y, while the thiadiazinone moiety appears little affected and resides in the root of the Y shaped cavity (Figure 2A,B). Potential residues involved in the binding of the thiadiazinone and tetrahydroquinoline moieties of the compound include Arg23, Asp85, Lys86, Asp107, Arg108, and Ser111. The dimethylated catechol moiety is mainly bound by residues Lys34, Lys48, and Gln79, and thus, interacts with the SH3-like β-barrel.
Basal and actin-activated Mg^2+-ATPase activities were measured using the NADH-coupled assay described previously ([Furch et al., 1998]) adapted for higher throughput screens for a temperature controlled plate reader (Multiscan FC, Thermo Scientific, Waltham, MA) at 25°C. EMD 57033 was added to the reaction mixture in the absence of nucleotide and incubated before the reaction was started by the addition of ATP. Control measurements were carried out in the absence of drug, as well as in the presence of according concentrations of the non-binding (−)-enantiomer EMD 57439 to account for possible absorption effects. […] Data points are mean values from 3 to 5 independent experiments. Error bars indicate standard deviations.

[2] = target: T2, β-cardiac myosin motor domain (Sus scrofa, UniProt P79293); assay: Melting temperature by circular dichroism at 222 nm; set-up: species or system Porcine; conditions: nucleotide-free, low salt, 100 µM (saturating) EMD 57033
T2 construct: Melting curves of the β-cardiac myosin motor domain as determined by circular dichroism spectroscopy at 222 nm; from tissue; host or cells: porcine cardiac muscle
T2 sequence (P79293 1-843 limits assumed): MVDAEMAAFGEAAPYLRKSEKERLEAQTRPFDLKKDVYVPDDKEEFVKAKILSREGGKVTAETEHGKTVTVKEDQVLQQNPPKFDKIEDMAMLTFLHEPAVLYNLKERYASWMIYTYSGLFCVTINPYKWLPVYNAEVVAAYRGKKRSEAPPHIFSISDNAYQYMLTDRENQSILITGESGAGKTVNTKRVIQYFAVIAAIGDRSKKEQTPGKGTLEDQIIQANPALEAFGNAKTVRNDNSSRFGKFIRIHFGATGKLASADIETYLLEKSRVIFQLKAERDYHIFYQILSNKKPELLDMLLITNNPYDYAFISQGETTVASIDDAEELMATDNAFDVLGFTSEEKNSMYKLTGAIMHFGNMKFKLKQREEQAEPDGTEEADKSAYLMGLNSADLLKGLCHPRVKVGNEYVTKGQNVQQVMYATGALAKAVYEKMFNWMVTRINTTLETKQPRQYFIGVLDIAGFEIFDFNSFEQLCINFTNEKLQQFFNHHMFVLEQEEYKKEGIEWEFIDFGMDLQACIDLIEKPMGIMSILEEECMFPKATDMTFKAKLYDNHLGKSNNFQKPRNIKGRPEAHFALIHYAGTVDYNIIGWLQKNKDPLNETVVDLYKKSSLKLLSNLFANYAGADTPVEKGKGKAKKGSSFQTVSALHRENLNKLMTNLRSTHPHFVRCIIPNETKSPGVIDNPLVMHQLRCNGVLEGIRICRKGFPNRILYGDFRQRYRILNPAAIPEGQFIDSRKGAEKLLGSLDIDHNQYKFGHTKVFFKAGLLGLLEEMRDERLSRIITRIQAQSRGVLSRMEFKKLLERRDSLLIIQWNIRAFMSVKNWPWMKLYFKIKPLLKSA
Procedure: Circular dichroism and differential static light scattering experiments were performed to determine Tm.
Protein solutions were diluted to a concentration of 0.3 mg/ml in a buffer containing 5 mM KPi pH 7.5, 15 mM KCl. Denaturation of β-cardiac myosin was measured by monitoring the temperature-dependent changes of ellipticity at 222 nm in a temperature controlled π*-180 Spectrometer equipped with a circular dichroism unit (Applied Photophysics, Leatherhead, UK). Measurements were performed in a 0.3-cm path length Quartz cuvette with a temperature gradient of 1°C min^−1. The transition midpoint of the unfolding reaction was calculated by fitting a Boltzmann function to the experimental data. Prior to measurements, the storage buffer of β-cardiac myosin that contains DTT and sucrose were exchanged using PD MiniTrap G-25 (GE Healthcare, Little Chalfont, UK) size exclusion columns equilibrated with CD Buffer (5 mM KPi pH 7.5, 15 mM KCl).

[3] = tested on: neonatal rat cardiomyocytes (NRCM); assay: Neonatal rat cardiomyocytes: cell size, MHC and ANP expression at 37°C or 42°C; type: cell-based; conditions: 10 µM, 24 hr
Procedure: Cell culture media, fetal bovine serum (FBS), and horse serum (HS) were purchased from Biochrome (Berlin, Germany); all other chemicals were from Sigma-Aldrich (St Louis, MO). Isolation of neonatal rat cardiomyocytes (NRCM) was performed by enzymatic digestion of neonatal rat hearts as described previously ([Hilfiker-Kleiner et al., 2004]). NRCM were cultured in plating medium containing 5% FBS and 10% HS for 24 hr followed by serum-starvation for 48 hr. NRCM were cultured in serum-free medium containing either EMD (10 µM) or the corresponding volume of the solvent DMSO (1 µl/ ml) for additional 24 hr at 37°C or 42°C with 5% CO2.
For indirect immunofluorescence NRCM were fixed with 95% ethanol. Monoclonal antibodies against sarcomeric α-actinin (1:50; Sigma-Aldrich) or sarcomeric Myosin heavy chain (1:50; Santa Cruz Biotechnology, Dallas, TX) were used. Fluor-488 goat anti-mouse IgG (1:250; Jackson ImmunoResearch, West Grove, PA) or Alexa Fluor 639 goat anti-rabbit (1:250; Jackson ImmunoResearch) was employed as secondary antibody. Immunofluorescence was detected by the use of the AxioVison Rel 4.1 package (Carl Zeiss GmbH).
Realtime measurement of PCR amplification was performed using the Stratagene MX4000 multiplex QPCR System with the SYBR green dye method (Brilliant SYBR Green Mastermix-Kit, Stratagene, La Jolla, CA) as described ([Hilfiker-Kleiner et al., 2010]; [Hoch et al., 2011]). Total RNA was extracted from NRCM using Trizol reagent according to the manufactures protocol (Invitrogen, Carlsbad, CA). Reverse transcriptase (RT)-PCR was performed of ANP and b2m using 2 μg of total RNA. The primer sequences and PCR conditions are described in Table 3. PCR products were size-fractionated by 2% agarose gel electrophoresis.
Protein expression in NRCM was determined by standard immunoblotting techniques under denaturing conditions, as described previously ([Hilfiker-Kleiner et al., 2004]). A monoclonal primary antibody against sarcomeric MHC (1:1.000; Abcam, Cambridge, UK) was used and signal detection was achieved by the usage of a horseradish peroxydase-conjugated secondary antibody (GE) and ECL-detection. PonceauS staining was carried out and used as a loading control.

[4] = tested on: phosphodiesterase III; set-up: method as in Gambassi et al., 1993; conditions: ref Gambassi et al., 1993; cited from earlier work
[5] = tested on: dogs with heart failure; set-up: method as in Senzaki et al., 2000; conditions: ref Senzaki et al., 2000; cited from earlier work
[6] = target: β-cardiac myosin (Sus scrofa, UniProt P79293); assay: In vitro motility assay (actin filament sliding); type: biochemical, Porcine; set-up: β-Cardiac myosin-2 (S1, full-length); from tissue; host or cells: porcine cardiac muscle
β-cardiac myosin, sequence (P79293 whole entry): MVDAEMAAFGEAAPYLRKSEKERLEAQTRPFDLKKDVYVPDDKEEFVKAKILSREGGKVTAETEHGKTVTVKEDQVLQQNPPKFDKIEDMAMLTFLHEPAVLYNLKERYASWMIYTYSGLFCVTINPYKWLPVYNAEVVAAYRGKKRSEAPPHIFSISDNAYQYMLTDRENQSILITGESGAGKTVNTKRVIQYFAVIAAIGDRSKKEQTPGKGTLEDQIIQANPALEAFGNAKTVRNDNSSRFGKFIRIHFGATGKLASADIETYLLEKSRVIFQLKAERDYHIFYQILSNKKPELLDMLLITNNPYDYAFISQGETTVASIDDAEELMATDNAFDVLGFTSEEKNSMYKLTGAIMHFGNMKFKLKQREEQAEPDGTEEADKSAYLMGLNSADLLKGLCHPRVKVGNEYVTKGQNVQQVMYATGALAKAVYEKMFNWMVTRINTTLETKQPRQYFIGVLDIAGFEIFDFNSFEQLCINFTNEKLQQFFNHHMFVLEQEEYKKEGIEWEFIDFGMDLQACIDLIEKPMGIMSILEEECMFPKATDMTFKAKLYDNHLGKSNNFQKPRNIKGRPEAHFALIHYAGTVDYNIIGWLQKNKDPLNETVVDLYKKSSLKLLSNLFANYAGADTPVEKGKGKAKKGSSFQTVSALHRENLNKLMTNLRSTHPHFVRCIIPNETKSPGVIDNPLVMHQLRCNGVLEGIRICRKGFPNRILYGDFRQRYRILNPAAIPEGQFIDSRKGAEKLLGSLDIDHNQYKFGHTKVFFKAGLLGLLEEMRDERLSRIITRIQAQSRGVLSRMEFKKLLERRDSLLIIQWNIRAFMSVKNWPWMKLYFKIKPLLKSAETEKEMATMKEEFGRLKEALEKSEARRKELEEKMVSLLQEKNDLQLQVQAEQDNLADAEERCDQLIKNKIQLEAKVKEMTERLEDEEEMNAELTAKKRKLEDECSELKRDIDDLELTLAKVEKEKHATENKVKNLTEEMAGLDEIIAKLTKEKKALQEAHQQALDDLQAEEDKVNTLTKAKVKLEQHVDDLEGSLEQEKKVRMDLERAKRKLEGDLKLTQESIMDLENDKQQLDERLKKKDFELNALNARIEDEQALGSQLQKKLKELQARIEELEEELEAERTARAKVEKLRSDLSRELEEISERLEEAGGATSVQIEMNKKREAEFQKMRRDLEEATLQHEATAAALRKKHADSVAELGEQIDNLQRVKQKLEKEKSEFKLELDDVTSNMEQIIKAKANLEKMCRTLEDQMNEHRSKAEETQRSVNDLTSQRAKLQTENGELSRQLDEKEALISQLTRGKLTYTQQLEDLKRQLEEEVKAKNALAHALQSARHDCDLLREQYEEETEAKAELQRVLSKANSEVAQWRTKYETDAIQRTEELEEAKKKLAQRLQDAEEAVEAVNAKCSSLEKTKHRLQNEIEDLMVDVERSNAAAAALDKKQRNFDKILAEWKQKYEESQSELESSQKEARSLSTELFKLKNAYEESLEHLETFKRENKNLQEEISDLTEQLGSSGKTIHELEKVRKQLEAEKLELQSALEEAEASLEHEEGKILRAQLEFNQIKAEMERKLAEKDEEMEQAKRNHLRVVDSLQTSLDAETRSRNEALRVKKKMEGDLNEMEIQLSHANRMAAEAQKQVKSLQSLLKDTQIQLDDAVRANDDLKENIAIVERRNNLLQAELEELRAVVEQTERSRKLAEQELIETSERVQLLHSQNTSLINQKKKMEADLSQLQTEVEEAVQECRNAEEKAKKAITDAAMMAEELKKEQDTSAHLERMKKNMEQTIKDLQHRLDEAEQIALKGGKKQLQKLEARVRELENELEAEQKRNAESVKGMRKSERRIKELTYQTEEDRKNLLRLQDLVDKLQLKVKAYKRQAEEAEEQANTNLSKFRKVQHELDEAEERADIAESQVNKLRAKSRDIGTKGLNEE
Text: In addition, the fraction of moving filaments increased from <75% to >95%. […] In initial experiments, we determined the minimal concentration of α-actinin molecules that generate sufficient load to stall the movement of actin filaments for a given surface density of myosin heads. […] Next, we generated in vitro motility flow cells with actin filaments held at stall force. […] The time-dependence of the recovery of motile activity is best fit by a hyperbola. A plateau value of 0.4 μm s^−1 is reached after more than 2 hr (Figure 1G).
Actin-sliding motility was performed at 20°C using an Olympus IX81 (Olympus, Hamburg, Germany) inverted fluorescence microscope as described previously ([Fujita-Becker et al., 2005]). Average sliding velocities were determined from the Gaussian distribution of automatically tracked actin filaments using DiaTrack 3.01 (Semasopht, Chavannes, Switzerland) and Origin 7.0 (OriginLab Corporation, Northampton, MA). Errors indicate standard deviations.

## COc1ccc(C(=O)N2CCCc3cc(C4=NNC(=O)SC4C)ccc32)cc1OC (centres unmarked) [EMD 57033]
[1]
  Normalized maximal ATPase activation (basal): no effect
[1]; 30 µM actin
  Normalized maximal ATPase activation (with 30 µM actin): no effect
[1]; 100 µM EMD 57033
  ATPase / chemomechanical activation of the truncated construct: no significant activation
[2]
  Tm (melting temperature): 53.6 ± 1.9 °C
[3]; 37°C
  ANP mRNA expression: not significantly changed; also recorded: does not affect expression of ANP mRNA
[3]; 37°C or 42°C
  Total cardiac MHC protein content: without significant changes in total cardiac MHC protein content; also recorded: does not significantly alter MHC protein levels
[3]; 37°C, vs DMSO
  β-cardiac MHC mRNA expression: reduction in β-cardiac MHC transcripts; also recorded: significantly reduces
[3]; 42°C
  ANP mRNA expression induced by hyperthermic stress: completely suppressed; also recorded: fully suppressed
  β-cardiac MHC mRNA downregulation: significantly more pronounced
[3]; vs DMSO
  α-cardiac MHC mRNA expression: without significant changes; also recorded: does not alter α-cardiac MHC mRNA expression
[4]
  Phosphodiesterase III inhibition: only minimal phosphodiesterase III inhibitory effects
[5]
  Haemodynamic effects in failing heart: potent positive inotropic effects, reduced oxygen cost of contraction, and enhanced diastolic chamber performance
[6]
  Increase of actin filament sliding velocity: 1.8 fold
[6]; in presence of EMD 57033
  Fraction of moving filaments: > 95%
